The experiment deals with human mixed lymphocyte reaction (MLR). Nature of the experiment: human mixed lymphocyte reaction (MLR), serum free variation. It counts as cell-based. To be noted: Homo sapiens, Lymphocyte, serum-free medium AIM V, Table 3. The protocol: In vitro Assay of Biological Activity (Serum Free MLR)
The in viitro immunosuppressant activity of the compounds of the present invention can also be determined using a variation of the human mixed lymphocyte reaction (MLR) assay described by Kino, T. et al. in Transplantation Proceedings, XIX(5):36-39, Suppl. 6 (1987). In this assay, the cell culture was performed in a serum-free medium, AIM V (GibcoBRL Life Technologies, Grand Island, N.Y.), instead of the usual RPMI 1640 plus 10% heat-inactivated fetal bovine serum medium. The final cell concentrations of the responder and stimulator peripheral blood mononuclear cells were, respectively, 5×10^5/mL and 2×10^6/mL of cells pooled from four donors.

Experimental findings from patent US5604234A, “Substituted thiol macrolactam immunomodulators” (Abbott Laboratories, priority 1995, dated 1997) are described below.

What is called IC50 is the concentration needed to halve the response being measured.

Consider `CC[C@@H]1/C=C(\C)C[C@H](C)C[C@H](OC)[C@H]2O[C@@](O)(C(=O)C(=O)N3CCCC[C@H]3C(=O)O[C@H](/C(C)=C/[C@@H]3CC[C@H]([S+]([O-])CC(=O)OCc4ccccc4)[C@H](OC)C3)[C@H](C)[C@@H](O)CC1=O)[C@H](C)C[C@@H]2OC` (stereo partly drawn) [Example 55], for which the midpoint of inhibition, the IC50, lay at 8.1 nM.
The figure for `CC[C@@H]1/C=C(\C)C[C@H](C)C[C@H](OC)[C@H]2O[C@@](O)(C(=O)C(=O)N3CCCC[C@H]3C(=O)O[C@H](/C(C)=C/[C@@H]3CC[C@H](S(=O)(=O)CC(=O)OCc4ccccc4)[C@H](OC)C3)[C@H](C)[C@@H](O)CC1=O)[C@H](C)C[C@@H]2OC` [Example 56] is 8.1 nM; for `CC[C@@H]1/C=C(\C)C[C@H](C)C[C@H](OC)[C@H]2O[C@@](O)(C(=O)C(=O)N3CCCC[C@H]3C(=O)O[C@H](/C(C)=C/[C@@H]3CC[C@H](S(=O)(=O)CC(=O)OC)[C@H](OC)C3)[C@H](C)[C@@H](O)CC1=O)[C@H](C)C[C@@H]2OC` [Example 57] it is 2 nM; for `CC[C@@H]1/C=C(\C)C[C@H](C)C[C@H](OC)[C@H]2O[C@@](O)(C(=O)C(=O)N3CCCC[C@H]3C(=O)O[C@H](/C(C)=C/[C@@H]3CC[C@H](S(=O)(=O)CC(=O)OC(C)(C)C)[C@H](OC)C3)[C@H](C)[C@@H](O)CC1=O)[C@H](C)C[C@@H]2OC` [Example 58] it is 2.1 nM.
On to `CCOC(=O)CS(=O)(=O)[C@H]1CC[C@@H](/C=C(\C)[C@H]2OC(=O)[C@@H]3CCCCN3C(=O)C(=O)[C@]3(O)O[C@H]([C@@H](OC)C[C@@H](C)C/C(C)=C/[C@@H](CC)C(=O)C[C@H](O)[C@H]2C)[C@@H](OC)C[C@H]3C)C[C@H]1OC` [Example 59], for which the IC50 amounted to 7.5 nM.
The compound `CCOC(=O)CC[S+]([O-])[C@H]1CC[C@@H](/C=C(\C)[C@H]2OC(=O)[C@@H]3CCCCN3C(=O)C(=O)[C@]3(O)O[C@H]([C@@H](OC)C[C@@H](C)C/C(C)=C/[C@@H](CC)C(=O)C[C@H](O)[C@H]2C)[C@@H](OC)C[C@H]3C)C[C@H]1OC` (stereo partly drawn) [Example 60] had an IC50 of 6.1 nM.
In the case of `CCOC(=O)CCS(=O)(=O)[C@H]1CC[C@@H](/C=C(\C)[C@H]2OC(=O)[C@@H]3CCCCN3C(=O)C(=O)[C@]3(O)O[C@H]([C@@H](OC)C[C@@H](C)C/C(C)=C/[C@@H](CC)C(=O)C[C@H](O)[C@H]2C)[C@@H](OC)C[C@H]3C)C[C@H]1OC` [Example 61], inhibition was half-maximal at 2.5 nM (IC50).
Regarding `CC[C@@H]1/C=C(\C)C[C@H](C)C[C@H](OC)[C@H]2O[C@@](O)(C(=O)C(=O)N3CCCC[C@H]3C(=O)O[C@H](/C(C)=C/[C@@H]3CC[C@H]([S+]([O-])CCC(=O)OCc4ccccc4)[C@H](OC)C3)[C@H](C)[C@@H](O)CC1=O)[C@H](C)C[C@@H]2OC` (stereo partly drawn) [Example 63], half-maximal inhibition (IC50) was put at 15 nM.
`CC[C@@H]1/C=C(\C)C[C@H](C)C[C@H](OC)[C@H]2O[C@@](O)(C(=O)C(=O)N3CCCC[C@H]3C(=O)O[C@H](/C(C)=C/[C@@H]3CC[C@H](S(=O)(=O)CCC(=O)OCc4ccccc4)[C@H](OC)C3)[C@H](C)[C@@H](O)CC1=O)[C@H](C)C[C@@H]2OC` [Example 64] returned an IC50 of 9.2 nM. Compared with the last compound, the IC50 is about 1.6-fold lower.
Compound `CC[C@@H]1/C=C(\C)C[C@H](C)C[C@H](OC)[C@H]2O[C@@](O)(C(=O)C(=O)N3CCCC[C@H]3C(=O)O[C@H](/C(C)=C/[C@@H]3CC[C@H]([S+]([O-])CCC(=O)N(O)C(C)C)[C@H](OC)C3)[C@H](C)[C@@H](O)CC1=O)[C@H](C)C[C@@H]2OC` (stereo partly drawn) [Example 72] yielded an IC50 of 32.2 nM.
With `CC[C@@H]1/C=C(\C)C[C@H](C)C[C@H](OC)[C@H]2O[C@@](O)(C(=O)C(=O)N3CCCC[C@H]3C(=O)O[C@H](/C(C)=C/[C@@H]3CC[C@H]([S+]([O-])CC(=O)O)[C@H](OC)C3)[C@H](C)[C@@H](O)CC1=O)[C@H](C)C[C@@H]2OC` (stereo partly drawn) [Example 74], the midpoint of inhibition, the IC50, lay at 57.7 nM.
The compound `CC[C@@H]1/C=C(\C)C[C@H](C)C[C@H](OC)[C@H]2O[C@@](O)(C(=O)C(=O)N3CCCC[C@H]3C(=O)O[C@H](/C(C)=C/[C@@H]3CC[C@H](S(=O)(=O)CCC(=O)O)[C@H](OC)C3)[C@H](C)[C@@H](O)CC1=O)[C@H](C)C[C@@H]2OC` [Example 78] yielded an IC50 of 30 nM.
